Literature values, collected in patent publication US8691302B2, “Peptide-containing seasoning” (Kikkoman Corporation, priority 2008, dated 2014).

Legend:
[1] = reported in Non-patent Reference 1
[2] = target: angiotensin converting enzyme (Homo sapiens, UniProt P12821); settings: reported in Non-patent Reference 1
angiotensin converting enzyme, sequence (P12821 30-1306, species assumed): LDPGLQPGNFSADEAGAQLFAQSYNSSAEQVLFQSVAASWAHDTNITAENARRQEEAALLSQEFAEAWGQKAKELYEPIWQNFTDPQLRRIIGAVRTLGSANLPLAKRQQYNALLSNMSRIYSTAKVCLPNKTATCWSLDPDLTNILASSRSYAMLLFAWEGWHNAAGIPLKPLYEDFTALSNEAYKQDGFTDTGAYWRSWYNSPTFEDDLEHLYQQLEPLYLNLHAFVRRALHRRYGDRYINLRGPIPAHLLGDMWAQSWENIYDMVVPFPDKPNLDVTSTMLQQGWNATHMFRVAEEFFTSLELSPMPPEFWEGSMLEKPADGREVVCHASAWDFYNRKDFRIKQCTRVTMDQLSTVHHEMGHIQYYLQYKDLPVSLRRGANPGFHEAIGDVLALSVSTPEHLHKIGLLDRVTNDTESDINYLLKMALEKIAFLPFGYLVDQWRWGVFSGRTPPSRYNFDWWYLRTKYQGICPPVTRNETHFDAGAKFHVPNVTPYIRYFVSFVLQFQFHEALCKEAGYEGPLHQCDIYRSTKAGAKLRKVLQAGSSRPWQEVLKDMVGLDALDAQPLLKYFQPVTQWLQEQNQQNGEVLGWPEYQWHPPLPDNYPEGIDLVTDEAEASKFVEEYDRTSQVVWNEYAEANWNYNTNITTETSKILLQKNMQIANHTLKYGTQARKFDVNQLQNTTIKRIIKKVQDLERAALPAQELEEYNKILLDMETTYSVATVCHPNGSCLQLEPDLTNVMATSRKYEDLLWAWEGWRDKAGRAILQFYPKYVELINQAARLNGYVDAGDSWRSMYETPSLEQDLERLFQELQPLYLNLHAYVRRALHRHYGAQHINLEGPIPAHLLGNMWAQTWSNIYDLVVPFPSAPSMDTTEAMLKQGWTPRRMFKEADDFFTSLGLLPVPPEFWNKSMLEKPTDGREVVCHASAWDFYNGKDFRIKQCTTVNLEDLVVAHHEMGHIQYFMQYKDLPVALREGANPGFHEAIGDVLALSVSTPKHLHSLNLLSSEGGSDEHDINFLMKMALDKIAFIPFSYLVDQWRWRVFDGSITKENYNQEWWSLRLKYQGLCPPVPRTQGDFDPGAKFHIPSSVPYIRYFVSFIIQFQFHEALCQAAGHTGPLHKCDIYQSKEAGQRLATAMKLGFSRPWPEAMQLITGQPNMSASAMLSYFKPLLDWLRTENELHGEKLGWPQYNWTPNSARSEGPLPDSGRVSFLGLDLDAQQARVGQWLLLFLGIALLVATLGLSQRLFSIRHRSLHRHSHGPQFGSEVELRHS

Gly-Tyr
hypotensive activity [1]: a hypotensive activity | angiotensin converting enzyme inhibitory activity [2]: have an angiotensin converting enzyme inhibitory activity

Ser-Tyr
hypotensive activity [1]: a hypotensive activity | angiotensin converting enzyme inhibitory activity [2]: have an angiotensin converting enzyme inhibitory activity
